The values that follow come from paper PMC11609934, “Exploration and characterization of the antimalarial activity of cyclopropyl carboxamides that target the mitochondrial protein, cytochrome b” (European Journal of Medicinal Chemistry, 2024).

Series [1] is described as follows: Human liver microsome stability. Format: in vitro ADME. The settings on record: pooled human liver microsomes. The protocol: Human Liver Microsome Stability. A solution of the test compounds in phosphate buffer solution (1 μM) was incubated in pooled human liver microsomes (0.5 mg/mL) for 0, 5, 20, 30, 45 and 60 min at 37 °C in the presence and absence of NADPH regeneration system. The reaction was terminated with the addition of ice-cold acetonitrile containing system suitability standard at designated time points. […] The experiment was carried out in duplicate. Verapamil, diltiazem, phenacetin, and imipramine were used as reference standards.
(In general: Liver microsomes are a subcellular fraction often used to study metabolism.)

Series [2] has as its system Pf 3D7 3-oxadiazole quinolone resistant strain with a V259L mutation in the Qo site of cyt b. The series is described as follows: Cyt b resistant asexual stage assay, 3D7 cyt b(V259L). Format: cell-based, Plasmodium falciparum. The settings on record: for EC50: Plasmodium falciparum, 3D7, 72 h, read-out: Pf cyt b mutant strains EC50 (SD) 3D7 cyt b(V259L). As for the experimental part:
(§1) To determine whether the cyclopropyl carboxamide series specifically targets the Qo site of cyt b, representative analogs W466 (1), W499 (2), and the focal compound here-on referred to as WJM280 (108) were evaluated against drug-resistant parasite strains with mutations in the Qo or Qi site of cyt b. […] These mutations are mapped to a model of cyt b in Fig. 3.
(§2) Cyt b Resistant and ScDHODH Asexual Stage Assays. These assays were conducted as previously described. Briefly, asexual parasite strains indicated in Table 12 were incubated with compound in a dose response format for 72 h. Parasitemia was determined using SYBR-green fluorescence measured by flow cytometry (Thermo Fisher Attune). EC50 values were determined as described for the LDH assay.

In series [3] the test system is Pf SB1-A6 strain. In words: Asexual stage assay, SB1-A6 strain. Format: cell-based. The settings on record: Plasmodium falciparum, 72 h, read-out: SB1-A6 EC50 (SD). As for the experimental part:
(§3) DHODH is essential for the function of the mitochondria ETC and pyrimidine biosynthesis. Compounds that inhibit cyt b typically have reduced activity against parasite strains with increased DHODH levels. To support evidence that the cyclopropyl carboxamide series impacts the mitochondrial ETC, selected analogs were evaluated against both the SB1-A6 strain that has a 2-fold amplification and a C276F SNP in PfDHODH [24] and a Dd2 strain that expresses Saccharomyces cerevisiae DHODH (ScDHODH). ScDHODH has low sequence homology to PfDHODH and is ubiquinone-independent in that it uses fumarate instead of mitochondrial coenzyme Q as an electron acceptor and therefore compounds that inhibit the Plasmodium mitochondrial ETC have reduced activity against the ScDHODH parasite strain.
as §2

In series [4] the test system is Pf Dd2 expressing ScDHODH. The series is described as follows: ScDHODH asexual stage assay. It is filed as cell-based. The settings on record: Plasmodium falciparum, DD2, 72 h, read-out: Dd2 ScDHODH EC50 (SD). The protocol: as §3, §2
Series [5] has as its system Pf Dd2 strain with an I22L mutation in the Qi site cyt b. In words: Cyt b resistant asexual stage assay, Dd2 cyt b(I22L). It is filed as cell-based. The settings on record: Plasmodium falciparum, DD2, 72 h, read-out: Pf cyt b mutant strains EC50 (SD) Dd2 cyt b(I22L). The protocol:
as §1, §2

A short description of series [6]: Human HepG2 growth inhibition assay (Cell TitreGlo, 48 h). The settings on record: human, HepG2 cells, HepG2 cell growth inhibition over 48 h. Format: cell-based. In outline:
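HepG2 cells (1000/well, DMEM + 10% FCS) exposed 48 h at 37 °C, 5% CO2 to compound from 50 μM top concentration in 1:2 dilutions, 0.5% DMSO final. Viability read by Cell Titer Glo, normalised to DMSO and 10 μM bortezomib; EC50 by four-parameter variable-slope fit.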

Series [7] in a line: eLogD (shake-flask, pH 7.4). It is filed as physicochemical. The settings on record: 1-octanol/phosphate buffered saline (1:1, v/v), Shake-flask method. As for the experimental part:
eLogD. The LogD (pH 7.4) assay was performed using a miniaturized shake flask method. A solution of a pre-saturated mixture of 1-octanol and phosphate buffered saline (PBS) (1:1, v/v) and the test compound (75 μM) was incubated at 25 °C with constant shaking (850 rpm) for 2 h. After incubation the organic and aqueous phases were separated, and samples of each phase transferred to plate for dilution. The organic phase was diluted to 1000-fold and the aqueous phase was diluted 20-fold. The samples were quantitated using LC-MS/MS. The experiment was carried out in duplicate. Propranolol, amitriptyline, and midazolam were used as reference standards.

Structures are written as SMILES.

For the compound `O=C(NC1CC1)c1ccc(CN(Cc2ccc(Cl)cc2Cl)C2CC2)cc1` [W499 (2)], the microsomal CLint (commonly the capacity of the preparation to metabolise the compound, expressed as a volume cleared per time) at 1 h, 1 µM in series [1] was determined as 177 µL/min/mg. Besides, the “fold reduction in activity against cyt b V259L Qo site mutant compared to the Dd2 parent strain” value in series [2] amounted to 1.5 fold. Besides, the concentration giving a half-maximal response (EC50) (as a rule, the concentration giving half of the maximal effect) was 0.165 µM in series [2], above 10 µM in series [3], above 10 µM in series [4] and 0.049 µM in series [5]. Besides, the CC50 (as a rule, the concentration at which the toxic effect on the cells reaches its halfway point) at 48 h in series [6] is above 40 µM. For the same compound, the log distribution coefficient (logD) (commonly lipophilicity at a set pH, counting ionised and neutral species) at 2 h in series [7] worked out at 4.1.

Compound `CCCN(Cc1ccc(C(=O)NC2CC2)cc1)Cc1ccc(C(F)(F)F)cc1` [WJM280 (108), N-Cyclopropyl-4-((propyl(4-(trifluoromethyl)benzyl)amino)methyl)benzamide] came in with an intrinsic clearance (microsomal CLint) at 1 h, 1 µM in series [1] of 62 µL/min/mg. For the same compound, in series [2], the “fold reduction in activity against cyt b V259L Qo site mutant compared to the Dd2 parent strain” value is listed as 2 fold. Besides, the EC50 in series [2] is 0.023 µM; in series [3] it was above 10 µM; in series [4], above 10 µM; in series [5], 0.002 µM. For the same compound, the 50% cytotoxic concentration (CC50) at 48 h in series [6] was 15 µM. The log distribution coefficient (logD) at 2 h in series [7] came out at 5.2.
